Experimental data from patent US9969742B2, “Imidazotriazinone compounds” (Ironwood Pharmaceuticals, Inc., priority 2012, dated 2018).
Like-named read-outs stand apart in the source and are kept apart here. One block for each molecule: values may come before it.

Experiments:
Assay type in all cases: biochemical
[1] = biological target: T1, PDE9A2 (Homo sapiens, UniProt O76083); test: Phosphodiesterase enzyme screening assay, PDE9A2
T1 construct: purchased Reaction Biology Corporation, Malvern, Pa
Method in brief: (§1)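 Enzyme activity is measured as conversion of fluorescent cGMP (4.0 μM) to 5′-GMP after 1 h at R.T. in pH 7.5 HEPES/MgCl2/DTT buffer. Product is separated from substrate by microfluidic mobility shift, and inhibition is derived by comparison with control wells.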

[2] = biological target: T2, PDE1A (Homo sapiens, UniProt P54750); test: Phosphodiesterase enzyme screening assay, PDE1A
T2 construct: purchased Reaction Biology Corporation, Malvern, Pa
Method in brief: as §1

[3] = biological target: T3, PDE1B (Homo sapiens, UniProt Q01064); test: Phosphodiesterase enzyme screening assay, PDE1B
T3 construct: purchased Reaction Biology Corporation, Malvern, Pa
Method in brief: as §1

[4] = Table 1, 10 concentrations, 4.0 μM cGMP substrate, 1 hour at R.T., read-out: Band (PDE9A2 IC50)
[5] = Table 1, ratio of IC50 values, value greater than 1 indicates greater selectivity for PDE9A2
[6] = IC50 band, 4.0 μM cGMP substrate, 1 hour at R.T.
[7] = ratio of IC50 values PDE1A vs PDE9A2, value greater than 1 indicates greater selectivity for PDE9A2
[8] = ratio of IC50 values PDE1B vs PDE9A2, value greater than 1 indicates greater selectivity for PDE9A2
[9] = Table 3, 4.0 μM cGMP substrate, 1 hour at R.T., read-out: Band (PDE9A2 IC50)
[10] = ratio of IC50 values, PDE1A versus PDE9A2, value greater than 1 = greater selectivity for PDE9A2
[11] = ratio of IC50 values, PDE1B versus PDE9A2, value greater than 1 = greater selectivity for PDE9A2
[12] = Table 2, 10 concentrations, 4.0 μM cGMP substrate, 1 hour at R.T., read-out: Band (PDE9A2 IC50)
[13] = Table 2, ratio of IC50 values, value greater than 1 indicates greater selectivity for PDE9A2
[14] = ratio of IC50 values, value greater than 1 indicates greater selectivity for PDE9A2

T2 sequence (P54750 whole entry): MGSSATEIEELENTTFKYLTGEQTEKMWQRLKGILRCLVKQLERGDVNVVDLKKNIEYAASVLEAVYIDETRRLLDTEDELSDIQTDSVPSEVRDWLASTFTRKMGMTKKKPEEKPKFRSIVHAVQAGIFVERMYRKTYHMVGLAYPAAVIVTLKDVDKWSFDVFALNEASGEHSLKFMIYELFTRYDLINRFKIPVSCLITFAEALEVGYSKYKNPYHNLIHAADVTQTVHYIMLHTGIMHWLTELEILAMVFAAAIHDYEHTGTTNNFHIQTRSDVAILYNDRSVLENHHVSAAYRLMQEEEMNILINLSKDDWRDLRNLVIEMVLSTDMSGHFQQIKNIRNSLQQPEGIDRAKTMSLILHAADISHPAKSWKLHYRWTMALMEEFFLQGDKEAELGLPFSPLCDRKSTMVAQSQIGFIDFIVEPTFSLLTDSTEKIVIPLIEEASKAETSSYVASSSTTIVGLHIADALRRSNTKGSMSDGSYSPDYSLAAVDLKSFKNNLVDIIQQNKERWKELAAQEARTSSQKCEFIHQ
T3 sequence (Q01064 whole entry): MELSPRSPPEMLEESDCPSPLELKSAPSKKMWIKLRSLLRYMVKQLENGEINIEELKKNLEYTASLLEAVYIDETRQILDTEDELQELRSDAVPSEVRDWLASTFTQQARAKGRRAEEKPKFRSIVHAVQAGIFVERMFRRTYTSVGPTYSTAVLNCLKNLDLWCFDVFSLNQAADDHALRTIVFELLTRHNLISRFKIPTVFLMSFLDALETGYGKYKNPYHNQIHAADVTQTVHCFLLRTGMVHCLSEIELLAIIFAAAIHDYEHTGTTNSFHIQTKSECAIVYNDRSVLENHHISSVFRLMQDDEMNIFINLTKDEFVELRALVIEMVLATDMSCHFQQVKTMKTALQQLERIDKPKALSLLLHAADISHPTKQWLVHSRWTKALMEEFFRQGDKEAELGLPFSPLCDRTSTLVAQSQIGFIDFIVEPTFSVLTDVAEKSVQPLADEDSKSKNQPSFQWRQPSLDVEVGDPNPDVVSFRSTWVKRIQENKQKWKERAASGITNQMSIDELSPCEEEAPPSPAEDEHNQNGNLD
T1 sequence (O76083 1-533 isoform O76083-2): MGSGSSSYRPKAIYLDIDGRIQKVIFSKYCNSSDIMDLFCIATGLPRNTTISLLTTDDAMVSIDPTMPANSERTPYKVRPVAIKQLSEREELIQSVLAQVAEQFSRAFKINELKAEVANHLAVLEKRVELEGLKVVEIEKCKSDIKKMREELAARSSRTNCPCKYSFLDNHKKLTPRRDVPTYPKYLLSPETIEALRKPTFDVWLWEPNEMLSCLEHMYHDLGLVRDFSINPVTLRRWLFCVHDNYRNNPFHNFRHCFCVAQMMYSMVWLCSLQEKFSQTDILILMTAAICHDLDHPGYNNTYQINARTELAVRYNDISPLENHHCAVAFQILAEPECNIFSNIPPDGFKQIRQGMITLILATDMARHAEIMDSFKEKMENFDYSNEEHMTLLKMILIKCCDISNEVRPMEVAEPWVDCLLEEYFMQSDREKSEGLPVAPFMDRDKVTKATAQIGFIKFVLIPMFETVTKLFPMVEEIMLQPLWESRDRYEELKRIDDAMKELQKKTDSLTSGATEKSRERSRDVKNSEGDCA

Structure (SMILES): CC1CN(Cc2ccc3ccncc3c2)CC1c1nn2c(C3CCOCC3)ncc2c(=O)[nH]1 (single isomer, unassigned; (+)) [(+)-2-((3,4-trans)-1-(isoquinolin-7-ylmethyl)-4-methylpyrrolidin-3-yl)-7-(tetrahydro-2H-pyran-4-yl) imidazo [5,1-f] [1,2,4] triazin-4(3H)-one]
- IC50 [1, 4]: < 1 µM
- PDE1A selectivity (versus PDE9A2) [2, 5]: 223
- PDE1B selectivity (versus PDE9A2) [3, 5]: 893

Structure (SMILES): CC1CN(Cc2cccc(N(C)C)c2)CC1c1nn2c(C3CCOCC3)ncc2c(=O)[nH]1 (single isomer, unassigned; (+)) [(+)-2-((3,4-trans)-1-(3-(dimethylamino)benzyl)-4-methylpyrrolidin-3-yl)-7-(tetrahydro-2H-pyran-4-yl)imidazo[5,1-f][1,2,4]triazin-4(3H)-one]
- IC50 [1, 4]: < 1 µM
- PDE1A selectivity (versus PDE9A2) [2, 5]: 680
- PDE1B selectivity (versus PDE9A2) [3, 5]: 923

Structure (SMILES): CC1CN(Cc2ccc(F)cn2)CC1c1nn2c(C3CCOCC3)ncc2c(=O)[nH]1 (single isomer, unassigned; (+)) [(+)-2-((3,4-trans)-1-((5-fluoropyridin-2-yl)methyl)-4-methylpyrrolidin-3-yl)-7-(tetrahydro-2H-pyran-4-yl)imidazo[5,1-f][1,2,4]triazin-4(3H)-one]
- IC50 [1, 9]: < 1 µM
- PDE1A selectivity (versus PDE9A2) [2, 10]: 273
- PDE1B selectivity (versus PDE9A2) [3, 11]: 377

Structure (SMILES): Cc1ccncc1-c1ncc2c(=O)[nH]c(C3CN(Cc4cn5ccccc5n4)CC3C)nn12 (single isomer, unassigned; (+)) [(+)-2-((3,4-trans)-1-(imidazo[1,2-a]pyridin-2-ylmethyl)-4-methylpyrrolidin-3-yl)-7-(4-methylpyridin-3-yl)imidazo[5,1-f][1,2,4]triazin-4(3H)-one]
- IC50 ([1]; read-out: Band (PDE9A2 IC50)): < 1 µM
- PDE1A selectivity (versus PDE9A2) ([2]; ratio of IC50 values, PDE1A versus PDE9A2, value greater than 1 indicates greater selectivity for PDE9A2): 128
- PDE1B selectivity (versus PDE9A2) ([3]; ratio of IC50 values, PDE1B versus PDE9A2, value greater than 1 indicates greater selectivity for PDE9A2): 230

Structure (SMILES): CC1CN(Cc2ncc(Cl)cn2)CC1c1nn2c(C3CCOCC3)ncc2c(=O)[nH]1 (single isomer, unassigned; (+)) [(+)-2-((3,4-trans)-1-((5-chloropyrimidin-2-yl)methyl)-4-methylpyrrolidin-3-yl)-7-(tetrahydro-2H-pyran-4-yl)imidazo[5,1-f][1,2,4]triazin-4(3H)-one]
- IC50 [1, 12]: < 1 µM
- PDE1A selectivity (versus PDE9A2) [2, 13]: 95
- PDE1B selectivity (versus PDE9A2) [3, 13]: 154

Structure (SMILES): CC1CN(Cc2ccc(C3CC3)cc2)CC1c1nn2c(C3CCOCC3)ncc2c(=O)[nH]1 (single isomer, unassigned; (+)) [(+)-2-((3,4-trans)-1-(4-cyclopropylbenzyl)-4-methylpyrrolidin-3-yl)-7-(tetrahydro-2H-pyran-4-yl)imidazo[5,1-f][1,2,4]triazin-4(3H)-one]
- IC50 [1, 4]: < 1 µM
- PDE1A selectivity (versus PDE9A2) [2, 5]: 260
- PDE1B selectivity (versus PDE9A2) [3, 5]: 605

Structure (SMILES): CC1CN(Cc2ccccc2)CC1c1nn2c(C3CCC(F)(F)CC3)ncc2c(=O)[nH]1 (single isomer, unassigned; (+)) [(+)-2-((3,4-trans)-1-benzyl-4-methylpyrrolidin-3-yl)-7-(4,4-difluorocyclohexyl)imidazo[5,1-f][1,2,4]triazin-4(3H)-one]
- IC50 [1, 4]: < 1 µM
- PDE1A selectivity (versus PDE9A2) [2, 5]: 309
- PDE1B selectivity (versus PDE9A2) [3, 5]: 496

Structure (SMILES): Cc1ncc(CN2CC(C)C(c3nn4c(C5CCOCC5)ncc4c(=O)[nH]3)C2)cn1 (single isomer, unassigned; (+)) [(+)-2-((3,4-trans)-4-methyl-1-((2-methylpyrimidin-5-yl)methyl)pyrrolidin-3-yl)-7-(tetrahydro-2H-pyran-4-yl)imidazo[5,1-f][1,2,4]triazin-4(3H)-one]
- IC50 [1, 4]: < 1 µM
- PDE1A selectivity (versus PDE9A2) [2, 5]: 80
- PDE1B selectivity (versus PDE9A2) [3, 5]: 60

Structure (SMILES): Cc1ccccc1CN1CC(C)C(c2nn3c(C4CCOCC4)ncc3c(=O)[nH]2)C1 (single isomer, unassigned; (+)) [(+)-2-((3,4-trans)-4-methyl-1-(2-methylbenzyl)pyrrolidin-3-yl)-7-(tetrahydro-2H-pyran-4-yl)imidazo[5,1-f][1,2,4]triazin-4(3H)-one]
- IC50 [1, 4]: < 1 µM
- PDE1A selectivity (versus PDE9A2) [2, 5]: 249
- PDE1B selectivity (versus PDE9A2) [3, 5]: 105

Structure (SMILES): COc1ccc(CN2CC(C)C(c3nn4c(C5CCOCC5)ncc4c(=O)[nH]3)C2)nc1 (single isomer, unassigned; (+)) [(+)-2-((3,4-trans)-1-((5-methoxypyridin-2-yl)methyl)-4-methylpyrrolidin-3-yl)-7-(tetrahydro-2H-pyran-4-yl)imidazo[5,1-f][1,2,4]triazin-4(3H)-one]
- IC50 ([1]; read-out: Band (PDE9A2 IC50)): < 1 µM
- PDE1A selectivity (versus PDE9A2) [2, 14]: 216
- PDE1B selectivity (versus PDE9A2) [3, 14]: 540

Structure (SMILES): CC1CN(Cc2ccoc2)CC1c1nn2c(C3CCOCC3)ncc2c(=O)[nH]1 (single isomer, unassigned; (+)) [(+)-2-((3,4-trans)-1-(furan-3-ylmethyl)-4-methylpyrrolidin-3-yl)-7-(tetrahydro-2H-pyran-4-yl)imidazo[5,1-f][1,2,4]triazin-4(3H)-one]
- IC50 [1, 9]: < 1 µM
- PDE1A selectivity (versus PDE9A2) [2, 10]: 68
- PDE1B selectivity (versus PDE9A2) [3, 11]: 123

Continued, values first:

- IC50 [1, 6]: < 1 µM
- PDE1A selectivity (versus PDE9A2) [2, 7]: 452
- PDE1B selectivity (versus PDE9A2) [3, 8]: 492
Structure (SMILES): Cc1cc(F)ccc1-c1ncc2c(=O)[nH]c(C3CN(Cc4cccnc4)CC3C)nn12 (single isomer, unassigned; (+)) [(+)-7-(4-fluoro-2-methylphenyl)-2-((3,4-trans)-4-methyl-1-(pyridin-3-ylmethyl)pyrrolidin-3-yl)imidazo[5,1-f][1,2,4]triazin-4(3H)-one]

- IC50 [1, 12]: < 1 µM
- PDE1A selectivity (versus PDE9A2) [2, 13]: 182
- PDE1B selectivity (versus PDE9A2) [3, 13]: 220
Structure (SMILES): Cc1ccnc(CN2CC(C)C(c3nn4c(C5CCOCC5)ncc4c(=O)[nH]3)C2)n1 (single isomer, unassigned; (+)) [(+)-2-((3,4-trans)-4-methyl-1-((4-methylpyrimidin-2-yl)methyl)pyrrolidin-3-yl)-7-(tetrahydro-2H-pyran-4-yl)imidazo[5,1-f][1,2,4]triazin-4(3H)-one]

- IC50 [1, 9]: < 1 µM
- PDE1A selectivity (versus PDE9A2) [2, 10]: 679
- PDE1B selectivity (versus PDE9A2) [3, 11]: 1560
Structure (SMILES): CC1CN(Cc2ccc(-c3ccncc3)cc2)CC1c1nn2c(C3CCOCC3)ncc2c(=O)[nH]1 (single isomer, unassigned; (-)) [(−)-2-((3,4-trans)-4-methyl-1-(4-(pyridin-4-yl)benzyl)pyrrolidin-3-yl)-7-(tetrahydro-2H-pyran-4-yl)imidazo[5,1-f][1,2,4]triazin-4(3H)-one]

- IC50 [1, 6]: < 1 µM
- PDE1A selectivity (versus PDE9A2) [2, 7]: 339
- PDE1B selectivity (versus PDE9A2) [3, 8]: 792
Structure (SMILES): Cc1cc(F)ccc1-c1ncc2c(=O)[nH]c(C3CN(Cc4cn5ccccc5n4)CC3C)nn12 (single isomer, unassigned; (+)) [(+)-7-(4-fluoro-2-methylphenyl)-2-((3,4-trans)-1-(imidazo[1,2-a]pyridin-2-ylmethyl)-4-methylpyrrolidin-3-yl)imidazo[5,1-f][1,2,4]triazin-4(3H)-one]

- IC50 ([1]; read-out: Band (PDE9A2 IC50)): < 1 µM
- PDE1A selectivity (versus PDE9A2) [2, 14]: 2875
- PDE1B selectivity (versus PDE9A2) [3, 14]: 2060
Structure (SMILES): CC1CN(Cc2ccc(-c3ccccc3)cc2)CC1c1nn2c(C3CCOCC3)ncc2c(=O)[nH]1 (single isomer, unassigned; (-)) [(−)-2-((3,4-trans)-1-([1,1′-biphenyl]-4-ylmethyl)-4-methylpyrrolidin-3-yl)-7-(tetrahydro-2H-pyran-4-yl)imidazo[5,1-f][1,2,4]triazin-4(3H)-one]

- IC50 [1, 6]: < 1 µM
- PDE1A selectivity (versus PDE9A2) [2, 7]: 233
- PDE1B selectivity (versus PDE9A2) [3, 8]: 575
Structure (SMILES): CC1CN(Cc2cnccn2)CC1c1nn2c(C3CCC(F)(F)CC3)ncc2c(=O)[nH]1 (single isomer, unassigned; (+)) [(+)-7-(4,4-difluorocyclohexyl)-2-((3,4-trans)-4-methyl-1-(pyrazin-2-ylmethyl)pyrrolidin-3-yl)imidazo[5,1-f][1,2,4]triazin-4(3H)-one]

- IC50 [1, 6]: < 1 µM
- PDE1A selectivity (versus PDE9A2) [2, 7]: 85
- PDE1B selectivity (versus PDE9A2) [3, 8]: 74
Structure (SMILES): Cc1ccc(F)cc1-c1ncc2c(=O)[nH]c(C3CN(Cc4cnccn4)CC3C)nn12 (single isomer, unassigned; (+)) [(+)-7-(5-fluoro-2-methylphenyl)-2-((3,4-trans)-4-methyl-1-(pyrazin-2-ylmethyl)pyrrolidin-3-yl)imidazo[5,1-f][1,2,4]triazin-4(3H)-one]
